Experimental data: patent US8404680B2, “N-[3-(5-amino-3,3a,7,7a-tetrahydro-1H-2,4-dioxa-6-aza-inden-7-yl)-phenyl]-amides as BACE1 and/or BACE2 inhibitors” (Hoffmann-La Roche Inc., priority 2011, dated 2013)

Legend:
[1] = target: T1, BACE2 (Rattus norvegicus, UniProt Q6IE75); test: Assay for BACE inhibition by measuring cellular TMEM27 cleavage; type: cell-based; settings: INS-TMEM27 (INS1e-derived rat cell line, inducible hTMEM27); shed TMEM27 in medium by ELISA
T1 construct: endogenous cellular BACE2 in the Ins1e rat cell line; endogenous in cells; host or cells: INS-TMEM27 (INS1e-derived rat cell line, TetOn-inducible full-length hTMEM27)
T1 sequence (Q6IE75 63-514): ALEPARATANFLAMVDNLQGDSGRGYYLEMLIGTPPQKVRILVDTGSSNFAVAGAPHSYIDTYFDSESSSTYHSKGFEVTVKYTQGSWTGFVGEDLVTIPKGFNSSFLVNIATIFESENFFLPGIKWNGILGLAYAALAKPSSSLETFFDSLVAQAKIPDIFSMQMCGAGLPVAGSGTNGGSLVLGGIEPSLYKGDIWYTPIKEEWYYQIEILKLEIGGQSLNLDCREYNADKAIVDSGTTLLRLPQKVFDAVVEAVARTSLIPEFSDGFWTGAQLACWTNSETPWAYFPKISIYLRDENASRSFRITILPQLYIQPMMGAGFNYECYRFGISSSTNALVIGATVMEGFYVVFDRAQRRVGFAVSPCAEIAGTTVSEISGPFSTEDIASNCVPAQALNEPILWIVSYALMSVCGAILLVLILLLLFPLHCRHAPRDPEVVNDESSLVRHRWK
Excerpt: Assay for BACE Inhibition by Measuring Cellular TMEM27 Cleavage:
The assay uses the principle of inhibition of human TMEM27 cleavage by endogenous cellular BACE2 in the Ins1e rat cell line and shedding from the cell surface into the culture medium, followed by detection in an ELISA assay Inhibition of BACE2 prevents the cleavage and shedding in a dose-dependent manner.
The stable cell line “INS-TMEM27” represents an INS1e-derived cell line with inducible expression (using the TetOn system) of full-length hTMEM27 in a doxycycline-dependent manner. The cells are cultured throughout the experiment in RPMI1640+ Glutamax (Invitrogen) Penicillin/Streptomycin, 10% Fetal bovine serum, […], […], 100 micrograms/ml G418 and 100 microgram/ml hygromycin and are grown inadherent culture at 37° C. in a standard CO2 cell culture incubator.
INS-TMEM27 cells are seeded in 96-well plates. After 2 days in culture, BACE2 inhibitor is added in a range of concentrations as required by the assay and after a further two hours, doxycycline is added to a final concentration of 500 ng/ml. The cells are incubated for a further 46 hours and the supernatant harvested for detection of shed TMEM27.
An ELISA assay (using a pair of mouse anti-human-TMEM27 antibodies, raised against the extracellular domain of TMEM27) is used for detection of TMEM27 in the culture medium. An EC50 for BACE2 inhibition is calculated using the ELISA readout for each inhibitor concentration with standard curve-fitting software such as XLFit for the Excel spreadsheet program.

[2] = target: T2, BACE1 (Homo sapiens, UniProt P56817); test: Cellular Aβ-lowering assay; type: cell-based; settings: human HEK293 cells stably expressing human APP wt (APP695); Aβ40 in supernatant by ELISA after 18-20 hrs
T2 construct: Human HEK293 cells which are stably transfected with a vector expressing a cDNA of the human APP wt gene (APP695); endogenous in cells; host or cells: HEK293 (human), stably transfected with human APP695 wt
Protocol: Cellular Aβ-Lowering Assay:
Human HEK293 cells which are stably transfected with a vector expressing a cDNA of the human APP wt gene (APP695) were used to assess the potency of the compounds in a cellular assay. The cells were seeded in 96-well microtiter plates in cell culture medium (Iscove, plus 10% (v/v) fetal bovine serum, glutamine, penicillin/streptomycin) to about 80% confluence and the compounds were added at a 10× concentration in 1/10 volume of medium without FCS containing 8% DMSO (final concentration of DMSO was kept at 0.8% v/v). After 18-20 hrs incubation at 37° C. and 5% CO2 in a humidified incubator the culture supernatant was harvested for the determination of Aβ40 concentrations. 96well ELISA plates (e.g., Nunc MaxiSorb) were coated with monoclonal antibody which specifically recognize the C-terminal end of Aβ40 (Brockhaus et al., NeuroReport 9, 1481-1486; 1998). After blocking of non-specific binding sites with e.g. 1% BSA and washing, the culture supernatants were added in suitable dilutions together with a horseradish peroxidase-coupled Aβ detection antibody (e.g., antibody 4G8, Senetek, Md. Heights, Mo.) and incubated for 5 to 7 hrs. Subsequently the wells of the microtiter plate were washed extensively with Tris-buffered saline containing 0.05% Tween 20 and the assay was developed with tetramethylbenzidine/H2O2 in citric acid buffer. After stopping the reaction with one volume 1 NH2SO4 the reaction was measured in an ELISA reader at 450 nm wavelength. The concentrations of Aβ in the culture supernatants were calculated from a standard curve obtained with known amounts of pure Aβ peptide.

T2 sequence (P56817 46-501): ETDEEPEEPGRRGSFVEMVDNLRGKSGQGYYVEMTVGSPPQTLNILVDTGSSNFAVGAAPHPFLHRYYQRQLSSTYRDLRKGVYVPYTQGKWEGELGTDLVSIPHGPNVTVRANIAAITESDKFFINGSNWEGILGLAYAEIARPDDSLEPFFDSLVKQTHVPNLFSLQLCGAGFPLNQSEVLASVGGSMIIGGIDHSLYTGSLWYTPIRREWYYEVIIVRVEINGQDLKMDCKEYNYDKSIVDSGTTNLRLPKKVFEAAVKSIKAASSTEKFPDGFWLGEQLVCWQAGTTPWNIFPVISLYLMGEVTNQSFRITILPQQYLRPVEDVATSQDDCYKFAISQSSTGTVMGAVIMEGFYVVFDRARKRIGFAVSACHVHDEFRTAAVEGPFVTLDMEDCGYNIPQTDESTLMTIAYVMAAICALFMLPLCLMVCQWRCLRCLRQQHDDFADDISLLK

SMILES | IC50 [1] [nM] | IC50 [2] [nM]
C[C@]1(c2cc(NC(=O)c3ncc(Cl)cc3Cl)ccc2F)N=C(N)O[C@@H]2COC[C@@H]21 [Example 2, 3,5-Dichloro-pyridine-2-carboxylic acid [3-((3aS,7S,7aS)-5-amino-7-methyl-3,3a,7,7a-tetrahydro-1H-2,4-dioxa-6-aza-inden-7-yl)-4-fluoro-phenyl]-amide] | 14 | 0.8
NC1=N[C@@](c2cc(NC(=O)c3ccc(Cl)cn3)ccc2F)(C(F)F)[C@H]2COC[C@H]2O1 [Example 16, 5-Chloro-pyridine-2-carboxylic acid [3-((3aS,7S,7aS)-5-amino-7-difluoromethyl-3,3a,7,7a-tetrahydro-1H-2,4-dioxa-6-aza-inden-7-yl)-4-fluoro-phenyl]-amide] | – | 5.5
C[C@]1(c2cc(NC(=O)c3ccc(C#N)cn3)ccc2F)N=C(N)O[C@@H]2COC[C@@H]21 [Example 4, 5-Cyano-pyridine-2-carboxylic acid [3-((3aS,7S,7aS)-5-amino-7-methyl-3,3a,7,7a-tetrahydro-4H-2,4-dioxa-6-aza-inden-7-yl)-4-fluoro-phenyl]-amide] | 17 | –
NC1=N[C@](CF)(c2cc(NC(=O)c3ccc(Cl)cn3)ccc2F)[C@H]2COC[C@H]2O1 [Example 14, 5-Chloro-pyridine-2-carboxylic acid [3-((3aS,7S,7aS)-5-amino-7-fluoromethyl-3,3a,7,7a-tetrahydro-1H-2,4-dioxa-6-aza-inden-7-yl)-4-fluoro-phenyl]-amide] | – | 1
CC#CCOc1cnc(C(=O)Nc2ccc(F)c([C@@]3(C)N=C(N)O[C@@H]4COC[C@@H]43)c2)cn1 [Example 7, 5-But-2-ynyloxy-pyrazine-2-carboxylic acid [3-((3aS,7S,7aS)-5-amino-7-methyl-3,3a,7,7a-tetrahydro-4H-2,4-dioxa-6-aza-inden-7-yl)-4-fluoro-phenyl]-amide] | 47 | –
NC1=N[C@](CF)(c2cc(NC(=O)c3ccc(F)cn3)ccc2F)[C@H]2COC[C@H]2O1 [Example 15, 5-Fluoro-pyridine-2-carboxylic acid [3-((3aS,7S,7aS)-5-amino-7-fluoromethyl-3,3a,7,7a-tetrahydro-1H-2,4-dioxa-6-aza-inden-7-yl)-4-fluoro-phenyl]-amide] | – | 2.5
C[C@]1(c2cc(NC(=O)c3ccc(C#N)cn3)ccc2F)N=C(N)O[C@]2(C(F)(F)F)COC[C@H]12 (racemic) [Example 22, N-(3-((4SR,4aSR,7aSR)-2-amino-4-methyl-7a-(trifluoromethyl)-4a,5,7,7a-tetrahydro-4H-furo[3,4-e][1,3]oxazin-4-yl)-4-fluorophenyl)-5-cyanopicolinamide] | – | 7
C[C@]1(c2cc(NC(=O)c3ccc(Cl)cn3)ccc2F)N=C(N)O[C@]2(C(F)(F)F)COC[C@H]12 (racemic) [Example 21, N-(3-((4SR,4aSR,7aSR)-2-amino-4-methyl-7a-(trifluoromethyl)-4a,5,7,7a-tetrahydro-4H-furo[3,4-e][1,3]oxazin-4-yl)-4-fluorophenyl)-5-chloropicolinamide] | – | 34
N#Cc1ccc(C(=O)Nc2ccc(F)c([C@@]3(CF)N=C(N)O[C@@H]4COC[C@@H]43)c2)nc1 [Example 13, 5-Cyano-pyridine-2-carboxylic acid [3-((3aS,7S,7aS)-5-amino-7-fluoromethyl-3,3a,7,7a-tetrahydro-1H-2,4-dioxa-6-aza-inden-7-yl)-4-fluoro-phenyl]-amide] | – | 1

Other lines, results leading:

IC50 [1] [nM] | IC50 [2] [nM] | SMILES
209 | 1.8 | C[C@]1(c2cc(NC(=O)c3cnc(OCC(F)(F)F)cn3)ccc2F)N=C(N)O[C@@H]2COC[C@@H]21 [Example 8, 5-(2,2,2-Trifluoro-ethoxy)-pyrazine-2-carboxylic acid [3-((3aS,7S,7aS)-5-amino-7-methyl-3,3a,7,7a-tetrahydro-1H-2,4-dioxa-6-aza-inden-7-yl)-4-fluoro-phenyl]-amide]
37 | 8 | C[C@]1(c2cc(NC(=O)c3ccccn3)ccc2F)N=C(N)O[C@@H]2COC[C@@H]21 [Example 5, Pyridine-2-carboxylic acid [3-((3aS,7S,7aS)-5-amino-7-methyl-3,3a,7,7a-tetrahydro-4H-2,4-dioxa-6-aza-inden-7-yl)-4-fluoro-phenyl]-amide]
– | 0.1 | CC#CCOc1ccc(C(=O)Nc2ccc(F)c([C@@]3(C)N=C(N)O[C@@H]4COC[C@@H]43)c2)nc1 [Example 10, 5-But-2-ynyloxy-pyridine-2-carboxylic acid [3-((3aS,7S,7aS)-5-amino-7-methyl-3,3a,7,7a-tetrahydro-1H-2,4-dioxa-6-aza-inden-7-yl)-4-fluoro-phenyl]-amide]
– | 5 | C[C@]1(c2cc(NC(=O)c3ccc(OCC4CC4)cn3)ccc2F)N=C(N)O[C@@H]2COC[C@@H]21 [Example 9, 5-Cyclopropylmethoxy-pyridine-2-carboxylic acid [3-((3aS,7S,7aS)-5-amino-7-methyl-3,3a,7,7a-tetrahydro-1H-2,4-dioxa-6-aza-inden-7-yl)-4-fluoro-phenyl]-amide]
36 | 0.7 | C[C@]1(c2cc(NC(=O)c3ccc(Cl)cn3)ccc2F)N=C(N)O[C@@H]2COC[C@@H]21 [Example 1, 5-Chloro-pyridine-2-carboxylic acid [3-((3aS,7S,7aS)-5-amino-7-methyl-3,3a,7,7a-tetrahydro-1H-2,4-dioxa-6-aza-inden-7-yl)-4-fluoro-phenyl]-amide]
– | 5 | C[C@]1(c2cc(NC(=O)c3ccc(OCC(F)(F)C(F)F)cn3)ccc2F)N=C(N)O[C@@H]2COC[C@@H]21 [Example 11, 5-(2,2,3,3-Tetrafluoro-propoxy)-pyridine-2-carboxylic acid [3-((3aS,7S,7aS)-5-amino-7-methyl-3,3a,7,7a-tetrahydro-1H-2,4-dioxa-6-aza-inden-7-yl)-4-fluoro-phenyl]-amide]
– | 9 | C[C@]1(c2cc(NC(=O)c3ccc(C#N)cn3)ccc2F)N=C(N)O[C@]2(C(F)(F)F)COC[C@H]12 (relative stereo) [Example 19, N-(3-(rel-(4SR,4aSR,7aSR)-2-amino-4-methyl-7a-(trifluoromethyl)-4a,5,7,7a-tetrahydro-4H-furo[3,4-e][1,3]oxazin-4-yl)-4-fluorophenyl)-5-cyanopicolinamide]
– | 7 | CC#CCOc1cnc(C(=O)Nc2ccc(F)c([C@@]3(C)N=C(N)O[C@]4(C(F)(F)F)COC[C@H]34)c2)cn1 (relative stereo) [Example 20, N-(3-(rel-(4SR,4aSR,7aSR)-2-amino-4-methyl-7a-(trifluoromethyl)-4a,5,7,7a-tetrahydro-4H-furo[3,4-e][1,3]oxazin-4-yl)-4-fluorophenyl)-5-(but-2-ynyloxy)pyrazine-2-carboxamide]
– | 1 | C[C@]1(c2cc(NC(=O)c3ncc(C#N)cc3Cl)ccc2F)N=C(N)O[C@@H]2COC[C@@H]21 [Example 12, N-(3-((4S,4aS,7aS)-2-amino-4-methyl-4a,5,7,7a-tetrahydro-4H-furo[3,4-e][1,3]oxazin-4-yl)-4-fluorophenyl)-3-chloro-5-cyanopicolinamide]
